Data as given in patent US7879792B2, “Synthetic peptide inhibitors of thrombin and thrombin activation of protease activated receptors 1 and 4” (The Regents of the University of Michigan, priority 2005, dated 2011).
Read-outs that look alike come from different tables or passages of the source. Where a SMILES comes first, the peptide text is derived from it.

Tests used:
[1] = stability testing in intestinal perfusate; assay type: in vitro ADME; details: rat, 37° C.; for half-life: intestinal perfusate
Description: (§1) Stability testing of the various compounds was performed in buffer, intestinal perfusate, and an intestinal homogenate preparation to assess the potential oral availability of these compounds. Initial studies prepared the tissue for stability studies. The buffer used in stability testing is 10 mM MES (pH 6.5) containing 135 mM NaCl, and 5 mM KCl. To collect intestinal perfusate from rats, male Sprague Dawley rats, 8 to 10 weeks old, weighing 250 to 350 g were fasted 15 to 18 hours with water given ad libitum. Anesthesia was administered by intramuscular injection of pentobarbital/ketamine (40 mg/kg and 80 mg/kg, respectively). The rats were placed on a warming pad under a surgical lamp to maintain body temperature and jejunal intestinal segments were exposed through a midline, abdominal incision. Approximately 20 cm segment of the jejunum (2 to 4 cm distal to the ligament of Treitz) was cannulated and the intestinal segments were perfused with 10 mM MES (pH 6.5) containing 135 mM NaCl, and 5 mM KCl at a flow-rate of 0.5 ml/min at 37° C. using a constant infusion pump (Harvard Apparatus, South Natick, Mass.). The collected perfusate was stored at −80° C. until use for ex vivo stability studies. After collection, the perfused intestinal segments were flushed with ice-cold 0.15 M KCl solution and the animal was euthanized and the jejunal intestinal segment detached. The inner intestinal tissue layers are scraped out and homogenized in MES buffer (pH 6.5) in a ratio of 1 part of intestinal tissue to 5 parts buffer. Total protein content of the perfusate and the homogenate were determined using a Biorad protein assay kit. The intestinal homogenate samples were used immediately or rapidly frozen at −80° C. until stability analysis.
(§2) The actual stability testing protocol is as follows: A 0.1 ml aliquot of the synthetic peptide solution (1 mg/ml) was added to 0.9 ml of MES buffer, pH 6.5, intestinal perfusate, or intestinal homogenate at 37° C. Samples were mixed by vortexing and 100 microliter aliquots were removed over a 60 to 90 minute period for analysis of breakdown products. The 100 microliter sample aliquots were diluted 10 fold with water and subjected to solid phase extraction using a Waters Oasis HLB column. Briefly, the columns were preconditioned by passing 1 ml of MeOH and 1 ml of water over the column, and 1 ml of sample was added to the column. The column was washed with 5% methanol:95% water solution to remove proteins and salts, then eluted with 1 ml of 100% methanol. The methanol was removed by vacuum, and the sample was reconstituted in mobile phase for LC/MS/MS analysis.
(§3) LC/MS/MS analysis was performed on a HP1100 HPLC (Hewlett Packard) interfaced with a Quattro II MS/MS detector (Waters/Micromass). For the HPLC separation, a 10 μL aliquot of sample in a mobile phase consisting of an equal volume mixture of acetonitrile/water containing 0.5% formic acid was injected onto a 150 mm×2.2 mm, 5 μm C8 column (Higgins Analytical Inc) and developed at a flow rate of 0.2 ml/min for 5 minutes. The MS detector was used in single ion recording mode at a cone voltage of 50 Volts.

[2] = rat intestinal in situ perfusion permeability; assay type: in vivo; details: rat
Description: To determine the intestinal permeability of the various peptide analogs, male albino Sprague-Dawley rats, 9-10 weeks old and weighing 250-350 g were fasted for 18 hours with free access to water. The rats were anesthetized with an intramuscular injection of ketamine/xylazine/butorphanol (87 mg/kg, 6 mg/kg, and 0.2 mg/kg body weight, respectively). The abdomen was opened by a 4-5 cm midline incision and a 10 cm jejunal segment was cannulated on two ends and connected to a syringe pump that pumps the perfusing solution through the cannulated intestine at a constant rate and at a temperature of 37° C. The isolated segment was rinsed with 10 mM MES (pH 6.5) at a flow-rate of 0.5 ml/min in order to clean out any residual debris. Jejunal perfusion was subsequently performed with the same buffer containing 135 mM NaCl, 5 mM KCl and 0.01% PEG 4000 at a flow rate of 0.2 ml/min containing test compound, internal permeability reference standards (e.g., metoprolol) and ^14C-PEG 4000 as a non-absorbable marker for measuring water flux. After steady-state is reached within the perfused intestinal segment, typically 30 minutes after start of perfusion, samples were taken at 10 minute intervals for 1 hour. ^14C (PEG-4000) levels are assayed by scintillation counting and test compounds and internal permeability standard analysis by LC/MS/MS. Samples are frozen and stored at −80° C. until analysis.
The effective permeability (Peff) determined from the in situ perfusion is calculated from equation 1
[formula] where Q is the perfusion buffer flow rate, C′out is the outlet concentration of the compound that has been adjusted for water transport (equation 2) after passing through the intestinal segment, C′in is the inlet or starting concentration of the compound, R is the radius of the intestinal segment (set to 0.2 cm) and L is the length of the intestinal segment. To correct for water transport, a non-absorbed radioactive tracer, ^14C PEG-4000, is included in the perfusion buffer. The Cout/Cin ratio is corrected for water transport according to equation 2:
[formula] where Aout-A0 is equal to the radioactivity counts in the outlet sample minus background (dpm) and Ain-A0 is equal to the radioactivity counts in the inlet sample minus background (dpm).
In certain instances, in addition to perfusing the intestinal segment as described, plasma is drawn through a portal vein cannula to determine the amount of material entering the portal system during the perfusion. This additional experimental step can aid in determining the true intestinal permeability of unstable compounds. After steady state conditions are reached as described above, 0.5 ml aliquots of plasma are withdrawn from the portal vein at regular intervals throughout the experimental time frame. The plasma samples are deproteinated with acetonitrile and the sample is subjected to SPE and LC/MS analysis as described above. From the plasma concentration of compound, the mesenteric permeability can be determined by substitution into equation 3: Flux=A*Pe-mes*Ci 3) where Flux is equal to the portal blood flow (estimated at 1 ml/min in the rat)×the steady state mesenteric blood concentration of the peptide analogs, A is the absorptive area of the intestine (estimated at 12.56 cm^2 in the rat intestine), Pe-mes is the mesenteric Permeability (cm/sec), and Ci is the starting concentration of drug in the perfusate (ug/ml).

[3] = stability testing in intestinal homogenate; assay type: in vitro ADME; details: rat
Description: as §1, §2, §3

[4] = read-out: t1/2 (min) Intestinal Perfusate

N=C(N)NCCC[C@H](N)C(=O)N1CCC[C@H]1C(=O)N1CCC[C@H]1C(=O)O [RPP, Arg-Pro-Pro, reference compound] (H-Arg-Pro-Pro-OH; C-terminus assumed)
half-life at 0.1 mg/ml ([1]; male, Sprague Dawley, intestinal (jejunal) perfusate, pH 6.5, rat, read-out: t1/2 (min) Intestinal Perfusate): 91.8 min

N=C(N)NCCC[C@@H](N)C(=O)N1[C@H](C(=O)N2C[C@H](O)C[C@H]2C(=O)NCC(=O)N[C@H](C(N)=O)C2Cc3ccccc3C2)C[C@@H]2CCCC[C@@H]21 [rOicHypGIdg] (HELM PEPTIDE1{[dR].[O=C([C@@H]1C[C@@H]2CCCC[C@@H]2N1[*:1])[*:2]].[Hyp].G.[O=C([C@@H](N[*:1])C1Cc2ccccc2C1)[*:2]].[am]}$$$$V2.0)
half-life [1, 4]: 205 min

N=C(N)NCCC[C@@H](N)C(=O)N1[C@H](C(=O)N2CCC[C@H]2C(=O)NCC(=O)N[C@H](C(N)=O)C2Cc3ccccc3C2)C[C@@H]2CCCC[C@@H]21 [rOicPGIdg] (HELM PEPTIDE1{[dR].[O=C([C@@H]1C[C@@H]2CCCC[C@@H]2N1[*:1])[*:2]].P.G.[O=C([C@@H](N[*:1])C1Cc2ccccc2C1)[*:2]].[am]}$$$$V2.0)
half-life [1, 4]: 56.1 min

N=C(N)NCCC[C@@H](N)C(=O)N1[C@H](C(=O)N2CCC[C@H]2C(=O)O)C[C@@H]2CCCC[C@@H]21 [rOicP] (HELM PEPTIDE1{[dR].[O=C([C@@H]1C[C@@H]2CCCC[C@@H]2N1[*:1])[*:2]].P}$$$$V2.0)
Papp ([2]; from portal vein plasma during perfusion, read-out: Permeability (mesenteric)): 1.63 ×10⁻⁶ cm/s | Papp ([2]; rat jejunal in situ perfusion, read-out: Permeability (in situ)): 7.6 ×10⁻⁶ cm/s | half-life ([3]; intestinal homogenate, 37° C., read-out: t1/2 (min) Intestinal Homogenate): 935 min | stability in intestinal homogenate (FIG. 12) [3]: most stable | t1/2 (min) Intestinal Perfusate [1]: stable
